The text below walks through data of article PMC7283364 (ACS infectious diseases, 2019).

Several values for one entry are separate records, joined by “and”; a condition that tells them apart may be missing. Identical values can stand only once. Like-named read-outs stand apart in the source and are kept apart here. Where a SMILES comes first, the peptide text is derived from it. The star is where a group is joined. Cbz = O=C(OCc1ccccc1)*

Data set [1] has as its target Sm20S β5 subunit (Schistosoma mansoni, UniProt A0A5K4F079). Kind of data set: Sm20S β5 inhibition assay. The format is biochemical.
Data set [2] concerns caspase activity in adult S. mansoni. Kind of data set: Caspase activity. The data set is classed as cell-based, Schistosoma mansoni. The conditions noted are these: 1 μM, 24 h, Ac-DEVD-AFC.
For data set [3], the system named is adult S. mansoni. Kind of data set: WormAssay quantitative motility assay of adult worms in culture. The format is cell-based, Schistosoma mansoni. As to conditions: 1 μM, mixed-sex adults.
Data set [4] deals with adult S. mansoni. Kind of data set: Microscopic observation of phenotypic changes of adult worms in culture. The data set is classed as cell-based, Schistosoma mansoni. The conditions noted are these: 1 μM; for phenotype viewed under the microscope: 72 h; for phenotypic changes: 24 h.
Data set [5] addresses Sm20S β1 subunit (Schistosoma mansoni, UniProt G4V926). Kind of data set: Sm20S β1 inhibition assay. The format is biochemical. The conditions noted are these: for IC50: read-out: IC50 Sm20S β1, z-LLE-AMC.
The test system of data set [6] is S. mansoni proteasome β5 subunit. Kind of data set: Proteasome inhibition in living worms exposed to inhibitors. The format is cell-based, Schistosoma mansoni. As to conditions: worms exposed to 1 μM for 24 h, washed, extracts assayed with Suc-LLVY-AMC.
Data set [7] has the same test system. Kind of data set: Inhibition of proteasome activity. The conditions noted are these: 1 μM inhibitor added to lysate, Suc-LLVY-AMC, E-64 present. The format is biochemical, Schistosoma mansoni.
The target in data set [8] is Sm20S β2 subunit (Schistosoma mansoni, UniProt G4VSW3). Kind of data set: Sm20S β2 inhibition assay. As to conditions: for IC50: read-out: IC50 Sm20S β2, z-LRR-AMC. The data set is classed as biochemical.
In data set [9] the target is human immunoproteasome (i20S) β5 subunit (Homo sapiens, UniProt P28062). Kind of data set: i20S β5 inhibition assay. The data set is classed as biochemical. The conditions noted are these: for fold less potent towards i20S β5: compared with c20S and Sm20S β5.
For data set [10], the system named is HepG2 cells.
The subject of data set [11] is HepG2 cells. The conditions noted are these: cited from earlier work.
In data set [12] the target is human immunoproteasome (i20S) β2 subunit (Homo sapiens, UniProt P40306). Kind of data set: i20S β2 inhibition assay. The data set is classed as biochemical.
The subject of data set [13] is Schistosoma mansoni infectious larvae (cercariae). The conditions noted are these: cercariae pre-treated with 50 μM; cited from earlier work.
Data set [14] has as its target human immunoproteasome (i20S) β1 subunit (Homo sapiens, UniProt P28065). Kind of data set: i20S β1 inhibition assay. The data set is classed as biochemical. As to conditions: read-out: IC50 i20S β1.
For data set [15], the system named is Sm20S β2 subunit. Kind of data set: Sm20S β2 inhibition assay. The data set is classed as biochemical.

Consider `CC(C)C[C@H](NC(=O)[C@H](CCc1ccccc1)NC(=O)CN1CCOCC1)C(=O)N[C@@H](Cc1ccccc1)C(=O)N[C@@H](CC(C)C)C(=O)[C@@]1(C)CO1` [carfilzomib], for which, in [1], the “fold more potent against Sm20S β5 compared to bortezomib” value came out at 18 fold, the “selectivity for Sm20S β5 subunit over β1” value is around 1000 fold and the “selectivity for Sm20S β5 subunit over β2” value is reported as “approximately 100 fold”. Also, the “increase in caspase activity compared to the DMSO control” value (“increase in caspase activity” for short) in data set [2] was determined as 4.5 fold. Besides, the “decrease in worm motility” value in data set [3] (6 h) was 47%. Besides, in data set [4], the “phenotype viewed under the microscope” value is “phenotypic changes were similar to those observed for bortezomib”. In [5], the “fold less potent against Sm20S β1 compared to bortezomib” value is “more than 33 fold” and the IC50 (usually the concentration needed to halve the response being measured) is above 500 nM. Also, the “decrease in endogenous proteasome (β5) activity in living worms” value (shortened to “decrease in endogenous proteasome”) in data set [6] was 84% and > 75%. For the same compound, the “reduction of proteolytic activity in worm lysate” value (shortened to “reduction of proteolytic activity”) in data set [7] was determined as 100%. Also, in data set [8], the “fold more potent against Sm20S β2 compared to bortezomib” value is on record as 5.6 fold and the 50% inhibitory concentration (IC50) turned out to be 48 nM.
On to `CCCCCC(=O)N[C@H](C(=O)N[C@@H](CCCC)C(=O)N[C@@H](CC(C)C)C(=O)[C@@]1(C)CO1)C(C)C` [analog 1], for which, in data set [1] (all subunits), the “difference in potency between c20S and Sm20S” value is given as “no difference in potency”. Also, the “fold less potent towards i20S β5” value in data set [9] is “at least 5 fold”. Moreover, the “fold less cytotoxic to HepG2 cells than carmaphycin B” value in [10] came out at 11 fold. For the same compound, the EC50 (as a rule, the concentration needed to bring the measured effect to its halfway point) in [11] is 134 nM. Besides, in [12] (compared with c20S and Sm20S β2), the “fold less potent towards i20S β2” value is “at least 5 fold”.
In the case of `CC(C)C[C@@H](C=O)NC(=O)[C@H](CC(C)C)NC(=O)[C@H](CC(C)C)NC(=O)OCc1ccccc1` [MG132] (Cbz-Leu-Leu-Leu-aldehyde), the “increase in caspase activity” value in data set [2] is “not significantly different from the DMSO control”. Further, in [3] (24 h), the “decrease in worm motility” value is on record as “did not alter motility”. The “reduction in parasite establishment compared to control-treated mice” value in data set [13] was 96%. Besides, the “phenotype viewed under the microscope” value in data set [4] is “appeared normal in shape, movement and color”. For the same compound, the “decrease in endogenous proteasome” value in data set [6] was “no effect on proteasome activity”. Further, the “reduction of proteolytic activity” value in data set [7] was 92%.
Turning to `CCCCCC(=O)N[C@H](C(=O)N[C@@H](CCS(C)(=O)=O)C(=O)N[C@@H](CC(C)C)C(=O)[C@@]1(C)CO1)C(C)C` [carmaphycin B], the concentration for half-maximal inhibition (IC50) in data set [1] (read-out: IC50 Sm20S β5, Suc-LLVY-AMC) was 9.8 nM; in [9] (read-out: IC50 i20S β5), below 5 nM; in data set [5] it was above 500 nM; in data set [12] (read-out: IC50 i20S β2), 62 nM; in data set [8], 0.6 nM; in data set [14], above 500 nM. In addition, the “decrease in worm motility” value in data set [3] (24 h) is on record as “at least 80%”. The phenotypic changes result in data set [4] is “same deleterious phenotypic changes previously noted for bortezomib”. The “decrease in endogenous proteasome” value in data set [6] was “at least 80%”.
With `CCCCCC(=O)N[C@@H](Cc1ccccc1)C(=O)N[C@@H](CCCC)C(=O)N[C@@H](Cc1ccccc1)C(=O)[C@@]1(C)CO1` [analog 7], the “fold less potent towards i20S β5” value in [9] is given as “at least 5 fold”. For the same compound, the “fold more potent for Sm20S β2 relative to c20S” value in data set [15] was found to be 3.3 fold.
`CC(C)C[C@H](NC(=O)[C@H](Cc1ccccc1)NC(=O)c1cnccn1)B(O)O` [bortezomib]: in data set [1], the half-inhibitory concentration (IC50) came to 9 nM and the “potency for Sm20S β1 compared with β5” value is recorded as “equal potency”. Moreover, the “increase in caspase activity” value in [2] is 7 fold. Also, in [3] (6 h), the “decrease in worm motility” value was determined as 45%. Moreover, in [4], the phenotypic changes result is on record as “same deleterious phenotypic changes previously noted for bortezomib”; the “phenotype viewed under the microscope” value was “relatively motionless, unable to extend or flex their bodies and darkened, and had detached from the surface of the well”. Also, the 50% inhibitory concentration (IC50) in [5] is 15 nM. The “reduction of proteolytic activity” value in data set [7] worked out at 99%. Besides, the concentration for half-maximal inhibition (IC50) in data set [8] came out at 272 nM.
